# Where “and” joins values, the source holds several entries; their conditions need not be identical. Identical values can stand only once. Like-named read-outs stand apart in the source and are kept apart here.
# Columns and labels:
# in vitro = format: cell-based; conditions: human, CC50
# Protocol: (§1) Compound was dissolved in DMSO to make 30 mM stock. Then the 30 mM stock is further diluted to 4 mM using DMSO. The 4 mM stock was used as the top concentration to carry out an 11-point, 3-fold dilution scheme using DMSO in a 96-well plate to make the compound dose plate. Compounds in the dose plate were transferred to a new 96-well plate (working plate) containing PBS with 0.05% pluronic acid. From this working plate, the compound solution was transferred to the 384-well assay plates.
# (§2) For cytotoxicity assay the same amount of MT2 cells as in antivirus assay but without HIV-1 virus were added to the cytotoxicity plates. The cytotoxicity was measured by Cell Titer-Glo cell viability assay (Promega).
# [1] = Cytotoxicity on Molt-4 cells (MTT); format: cell-based; conditions: human, read-out: Percent Viability; for viability at 24 h, 0.1 µM: concentration 0.1 μM; for viability at 24 h, 1 µM: concentration 1 μM; for viability at 24 h, 10 µM: concentration 10 μM; for viability at 24 h, 100 µM: concentration 100 μM
# Protocol: 10 mM stock solution of the test compound was made in DMSO and stored at −20° C. for further use. During the day of the experiment working stocks were made by serial dilution with DMSO. The final concentration of DMSO in the test media is 1%.
# MTT assay was performed in a 96 well format using Molt-4 cell line (Human acute T lymphoblastic leukemia)—a suspension culture maintained in RPMI with 10% FBS media.
# Approximately 0.03 million cells are seeded/well and the plate was incubated for 16 hours. Following incubation, cells are treated with a test compound at a defined concentration in triplicates and incubation was continued for another 24 hours. At the end of the incubation, MTT reagent was added (10 μl, 5 mg/ml stock) to the plate and continued incubation for additional 4 hours. Reaction was terminated by addition of 200 μl 0.1N acidic propanol. The colour developed was measured by a plate reader using 590 nm filters. The percent viability was calculated by comparing mean absorbance value of sample with the control (Vehicle alone).
# HIV-193IN 101 = experiment: P24 assay for anti-HIV activity in Sup-T1 cells; format: cell-based, HIV-1; conditions: Human immunodeficiency virus 1, SUP-T1, read-out: Percent Inhibition of HIV-193IN 101 Replication in Sup-T1 Cells (table title: Percent Viability)
# Protocol: Viral p24 is measured after about 72 hours of post infection in presence of drugs using an ABL p24 ELISA kit. 0.5 million cells/well are taken into the 24 well plates and added increasing concentrations of drugs. 1 ng/ml of HIV-1 virus was added to each well and incubated for overnight at 37° C. (37° C. and 5% CO2). After about 16 hours incubation the media was changed and fresh media was added and cultured for about 72 hours. P24 was quantified at the 4th day of post-infection using an ABL kit according to manufacturer's instructions.
# Percent Inhibition of HIV-193IN 101 Replication in Sup-T1 Cells
# HIV-1 strain IIIB = experiment: Anti-HIV-1 luciferase indicator assay in MT2 cells, IIIB; format: cell-based; conditions: viral strain II B; for IC50: read-out: IC50
# Protocol: as §1
# (§3) Control compounds used in compound control wells were prepared and added to assay plates individually.
# (§4) MT2 cells were mixed with HIV-1 strain NL4-3 (or IIIB, or CNHN24) and the cell/virus mixture was added to the aforementioned antivirus assay plates. After incubation in a 37° C., 5% CO2 incubator, the supernatant from the assay plate was transferred to a new 384-well plate containing the indicator cells with a fire fly luciferase gene under HIV-1 LTR control. The expression level of luciferase was related to HIV-1 infectivity and was measured by Bright-Glo kit (Promega).
# (§5) Therapeutic index (TI) was determined by taking ratio of CC50/IC50
# HIV-1 strain NL4-3 = experiment: Anti-HIV-1 luciferase indicator assay in MT2 cells, NL4-3; format: cell-based; conditions: viral strain NL4-3
# Protocol: as §1, §3, §4, §5
# [2] = Cytotoxicity on Sup-T1 cells (MTT); format: cell-based; conditions: human, read-out: Percent Viability; for viability at 0.001 µM: concentration 1 nM; for viability at 0.1 µM: concentration 100 nM; for viability at 1 µM: concentration 1 μM; for viability at 100 µM: concentration 100 μM; for viability at 1 mM: concentration 1 mM
# Protocol: Reduction of 3-(4,5-dimethylthiozol-2-yl)-2,5-diphenyltetrazolium bromide (MTT, sigma) is chosen as an optimal end point of cell viability measurement (Mosmann, 1983; Cole, 1986; Alley et al., 1988) […] (0.2×10^6 cells per well) are seeded in 96-well plates. Increasing concentrations of compound are added to the cells and incubated at 37° C. for about 14 hours in a CO2 Incubator with 5% CO2. The media is replaced with a fresh growth medium along with 20 μL of 5 mg/ml 3-(4,5-dimethylthiazol-2-yl)-2,5-diphenyltetrazolium bromide (MTT, Sigma). After incubation for about 4 hours in a humidified atmosphere, the media is removed and 200 μL of 0.1 N acidic isopropyl alcohol is added to the wells to dissolve the MTT-formazan crystals. The absorbance is recorded at 570 nm, immediately after the development of purple colour. Each experiment is conducted in triplicate and the data are represented as average, with standard deviation. Percent viability of the cells is computed with reference to the absorbance of reduced MTT in the experiments conducted in absence of any compound.
# HIV-1 strain CNHN24 = experiment: Anti-HIV-1 luciferase indicator assay in MT2 cells, CNHN24; format: cell-based; conditions: viral strain CNHN24; for IC50: read-out: IC50
# Protocol: as §1, §3, §4, §5
# HIV-1 strain 92-HT599 = experiment: Anti HIV-1 p24 assay, strain 92-HT599 in MT2 cells; format: cell-based; conditions: Human immunodeficiency virus 1, MT2 cells, read-out: Percent inhibition
# Protocol: MT2 cells were infected with the HIV-1 strain 92-HT599 (10TCID50/30000 cells). The infected cells are plated at the concentration of 30000 cells per well in a 96 well assay micro plate. A test compound was added to the micro plate in a defined format with the final concentration of DMSO (vehicle) being not more than 1%. Incubation was carried out in a CO2 incubator for 96 hours for viral infection. At the end of incubation period an aliquot from each well was taken for p24 estimation. The quantitation of p24 is an index for antiviral activity of the compound. Percent inhibition was calculated with reference to control values (vehicle).
# P24 estimation was carried out using an Advance Biosciences kit as per the procedure as detailed by supplier.
# […] was made by dissolving test compound in DMSO. Subsequent dilutions were made with DMSO to make necessary working stocks (100×).
# MT2 cells = experiment: in vitro; format: cell-based; conditions: human
# Protocol: as §1, §2
# [3] = Human immunodeficiency virus 1, IIIB, MT2, MT2 cells
# [4] = Human immunodeficiency virus 1, NL43, MT2, MT2 cells, read-out: IC50
# [5] = Human immunodeficiency virus 1, MT2, MT2 cells
structure (smiles),measurement,setting,value
C=C(C)[C@@H]1CC[C@]2(C(=O)N[C@H]3C[C@@H](C(=O)N4CCCCC4)C3(C)C)CC[C@]3(C)[C@H](CC[C@@H]4[C@@]5(C)CC[C@H](OC(=O)[C@@H]6C[C@H](C(=O)O)C6(C)C)C(C)(C)[C@@H]5CC[C@]43C)[C@@H]12,melting point,,257.7 to 269 °C
C=C(C)[C@@H]1CC[C@]2(C(=O)N[C@@H]3C[C@H](C(=O)OCc4ccccc4)C3(C)C)CC[C@]3(C)[C@H](CC[C@@H]4[C@@]5(C)CC[C@H](OC(=O)CC(C)(C)C(=O)O)C(C)(C)[C@@H]5CC[C@]43C)[C@@H]12,melting point,,64.7 to 100.4 °C
"C=C(C)[C@@H]1CC[C@]2(C(=O)O)CC[C@]3(C)[C@H](CC[C@@H]4[C@@]5(C)CC[C@H](OC(=O)[C@@H]6C[C@H](C(=O)O)C6(C)C)C(C)(C)[C@@H]5CC[C@]43C)[C@@H]12 [Example 4, (1R,3aS,5aR,5bR,7aR,9S,11aR,11bR,13aR,13bR)-9-((1R,3S)-3-carboxy-2,2-dimethylcyclobutanecarbonyloxy)-5a,5b,8,8,11a-pentamethyl-1-(prop-1-en-2-yl)icosahydro-1H-cyclopenta[a]chrysene-3a-carboxylic acid]",CC50,in vitro,20000 nM
same,"viability at 24 h, 0.1 µM",[1],101%
same,"viability at 24 h, 1 µM",[1],98.7%
same,"viability at 24 h, 10 µM",[1],102%
same,"viability at 24 h, 100 µM",[1],7.03%
same,inhibition at 0.0001 µM,HIV-193IN 101,13%
same,inhibition at 0.001 µM,HIV-193IN 101,17.7%
same,inhibition at 0.1 µM,HIV-193IN 101,23.5%
same,inhibition at 1 µM,HIV-193IN 101,42.4%
same,inhibition at 100 µM,HIV-193IN 101,87.5%
same,IC50,HIV-1 strain IIIB; [3],364 nM
same,TI / Safety Index (CC50/IC50),HIV-1 strain IIIB; MT2 cells,54
same,IC50,HIV-1 strain NL4-3; [4],201 nM
same,TI / Safety Index (CC50/IC50),HIV-1 strain NL4-3; MT2 cells,91
same,viability at 0.001 µM,[2],85.8%
same,viability at 0.1 µM,[2],86.8%
same,viability at 1 µM,[2],85.2%
same,viability at 100 µM,[2],39%
same,viability at 1 mM,[2],26.2%
same,IC50,HIV-1 strain CNHN24; [5],218 nM
same,TI / Safety Index (CC50/IC50),HIV-1 strain CNHN24; MT2 cells,91
"C=C(C)[C@@H]1CC[C@]2(C(=O)O)CC[C@]3(C)C(CC[C@@H]4[C@@]5(C)[C@@H](C(=O)O)[C@H](OC(=O)CC(C)(C)C(=O)O)C(C)(C)[C@@H]5CC[C@]43C)C12 (stereo partly drawn) [Example 6, (1R,2S,3aR,5aR,5bR,7aS,10R,12aR,12bR)-2-(3-carboxy-3-methylbutanoyloxy)-3,3,5a,5b,12b-pentamethyl-10-(prop-1-en-2-yl)icosahydrodicyclopenta[a,i]phenanthrene-1,7a-dicarboxylic acid]","viability at 24 h, 0.1 µM",[1],103%
same,"viability at 24 h, 1 µM",[1],99%
same,"viability at 24 h, 10 µM",[1],82.8%
same,"viability at 24 h, 100 µM",[1],7.27%
same,inhibition at 0.0001 µM,HIV-193IN 101,17.5%
same,inhibition at 0.001 µM,HIV-193IN 101,15.2%
same,inhibition at 0.1 µM,HIV-193IN 101,21.1%
same,inhibition at 1 µM,HIV-193IN 101,32.1%
same,inhibition at 100 µM,HIV-193IN 101,34.9%
same,viability at 0.001 µM,[2],86.9%
same,viability at 0.1 µM,[2],82.7%
same,viability at 1 µM,[2],88.6%
same,viability at 100 µM,[2],88.8%
same,viability at 1 mM,[2],23.1%
"C=C(C)[C@@H]1CC[C@]2(C(=O)N[C@H]3C[C@@H](C(=O)N4CCCC4)C3(C)C)CC[C@]3(C)[C@H](CC[C@@H]4[C@@]5(C)CC[C@H](OC(=O)CC(C)(C)C(=O)O)C(C)(C)[C@@H]5CC[C@]43C)[C@@H]12 [Example 15, 4-((1R,3aS,5aR,5bR,7aR,9S,11aR,11bR,13aR,13bR)-3a-((1S,3R)-2,2-dimethyl-3-(pyrrolidine-1-carbonyl)cyclobutylcarbamoyl)-5a,5b,8,8,11a-pentamethyl-1-(prop-1-en-2-yl)icosahydro-1H-cyclopenta[a]chrysen-9-yloxy)-2,2-dimethyl-4-oxobutanoic acid]",melting point,,110 to 114 °C
same,inhibition at 0.1 µM,"HIV-1 strain 92-HT599; HIV-1 92-HT599, p24, concentration 0.1 μM",86%
same,inhibition at 1 µM,"HIV-1 strain 92-HT599; HIV-1 92-HT599, p24, concentration 1 μM",98%
"C=C(C)[C@@H]1CC[C@]2(C(=O)O)CC[C@]3(C)[C@H](CC[C@@H]4[C@@]5(C)CC[C@H](OC(=O)[C@H]6C[C@@H](C(=O)O)C6(C)C)C(C)(C)[C@@H]5CC[C@]43C)[C@@H]12 [Example 19, (1R,3aS,5aR,5bR,7aR,9S,11aR,11bR,13aR,13bR)-9-((1S,3R)-3-carboxy-2,2-dimethylcyclobutanecarbonyloxy)-5a,5b,8,8,11a-pentamethyl-1-(prop-1-en-2-yl)icosahydro-1H-cyclopenta[a]chrysene-3a-carboxylic acid]",CC50,in vitro,20000 nM
same,melting point,,308 to 310 °C
same,IC50,HIV-1 strain IIIB; [3],21 nM
same,TI / Safety Index (CC50/IC50),HIV-1 strain IIIB; MT2 cells,952
same,IC50,HIV-1 strain NL4-3; [4],72 nM
same,TI / Safety Index (CC50/IC50),HIV-1 strain NL4-3; MT2 cells,277
same,IC50,HIV-1 strain CNHN24; [5],26 nM
same,TI / Safety Index (CC50/IC50),HIV-1 strain CNHN24; MT2 cells,769
"C=C(C)[C@@H]1CC[C@]2(C(=O)N[C@@H]3C[C@H](C(=O)N4CCCCC4)C3(C)C)CC[C@]3(C)[C@H](CC[C@@H]4[C@@]5(C)CC[C@H](OC(=O)CC(C)(C)C(=O)O)C(C)(C)[C@@H]5CC[C@]43C)[C@@H]12 [Example 48, 4-((1R,3aS,5aR,5bR,7aR,9S,11aR,11bR,13aR,13bR)-3a-((1R,3S)-2,2-dimethyl-3-(piperidine-1-carbonyl)cyclobutylcarbamoyl)-5a,5b,8,8,11a-pentamethyl-1-(prop-1-en-2-yl)icosahydro-1H-cyclopenta[a]chrysen-9-yloxy)-2,2-dimethyl-4-oxobutanoic acid]",CC50,MT2 cells,20000 nM
same,CC50,in vitro,> 20000 nM
same,IC50,HIV-1 strain IIIB; [3],18 nM
same,TI / Safety Index (CC50/IC50),HIV-1 strain IIIB; MT2 cells,1061 and 800
same,IC50,HIV-1 strain IIIB; MT2 cells,25 nM
same,IC50,"HIV-1 strain NL4-3; Human immunodeficiency virus 1, NL43, MT2, MT2 cells",9 nM
same,TI / Safety Index (CC50/IC50),HIV-1 strain NL4-3; MT2 cells,2072 and 1176
same,IC50,"HIV-1 strain NL4-3; MT2 cells, read-out: IC50",17 nM
same,IC50,HIV-1 strain CNHN24; [5],11 nM
same,IC50,HIV-1 strain CNHN24; MT2 cells,21 nM

# — patent US9067966B2, “Lupeol-type triterpene derivatives as antivirals” (priority 2009, dated 2015)
